Measured values: patent publication US6528532B1, “Urea derivatives as HIV aspartyl protease inhibitors” (Pharmacor Inc., priority 2002, dated 2003)
pKi: −log10 of the molar value. Read-outs that look alike come from different tables or passages of the source.

Experiments:
[1] = biological target: HIV protease (Human immunodeficiency virus type 1 group M subtype B, UniProt P04585); experiment: Enzymatic (FRET fluorometric) assay for determining the inhibition constant (Ki) of compounds targeting the HIV protease; assay type: biochemical; conditions: FRET substrate (EDANS/DABCYL), equation of Henderson
From the text: Enzymatic Assay for Determining the Inhibition Constant (Ki) of Synthetic Compounds Targeting the HIV Protease
This is a fluorometric assay based on the cleavage by protease of a substrate carrying a donor group (EDANS) and an acceptor group (DABCYL) on each side of the cleavage site, interacting together through fluorescence resonance energy transfer (FRET) as described by Matayoshi et al. (Science 247:[…], 1990).
After calculation of Vo and Vi, the inhibition constant (Ki) of the compound is determined using the equation of Henderson: [formula]
where Vo=the enzyme's initial velocity
Vi=the enzyme velocity in the presence of the inhibitory compound,
[I]=inhibitor concentration, [S]=substrate concentration,
Km=Michaelis-Menten constant and Kiapp=apparent Ki
Graphs are traced and the Ki determined using GraphPad Prism software v. 3.0.

[2] = in vitro; assay type: cell-based; conditions: human
Experimental: To evaluate the EC50 of our compounds, various drug concentrations are incubated with the infected cell for six days and then the metabolic activity of the cells is monitored by the MTT assay. (See A. J. Japour et al, Antimicrobial Agents and Chemotherapy, 37, 1095-1101, 1993 and R. Pauwels et al. Journal of Virological Methods, 20, 309-321, 1988).
We use the laboratory viral strain NL4.3 as wild type virus and the cell line used is MT-4 which is a T-cell line highly sensitive to HIV-1. We also use some WT clinical strains. To address the resistance issue we assay the inhibitors with NL4.3 mutants which are designed to be resistant to specific commercially available inhibitors.
The same MTT assay is used to evaluate the CCIC50 (cell culture IC50) of our compounds except that the virus is omitted.

SMILES | pKi ([1]; Ki) | IC50 at 6 days [2] [nM] | pKi ([1]; read-out: Ki)
Cc1ccc(S(=O)(=O)N(CC(C)C)[C@H](CO)CCCCNC(=O)N(Cc2ccccc2)Cc2ccc([N+](=O)[O-])cc2)cc1 [Example 61, (2S) 2-N-Isobutyl-2-N-(4-methylbenzenesulfonyl)-6-N-[N′-benzyl-N′-(4-nitrobenzyl)aminocarbonyl]-2,6-diaminohexanol] | 8.05 | 5100 | 
CC(C)CN([C@H](CO)CCCCNC(=O)N(Cc1ccc(F)cc1)Cc1ccc2c(c1)OCO2)S(=O)(=O)c1ccc(N)cc1 [Example 67, (2S) 2-N-(4-Aminobenzenesulfonyl)-2-N-isobutyl-6-N-[N′-(4-fluorobenzyl)-N′-piperonylaminocarbonyl]-2,6-diaminohexanol] | 8.70 | 11000 | 
COc1cc(CN(Cc2ccc3c(c2)OCO3)C(=S)NCCCC[C@@H](CO)N(CCC(C)C)S(=O)(=O)c2ccc(N)cc2)cc(OC)c1OC [Example 107, (2S) 2-N-(4-Aminobenzenesulfonyl)-2-N-(3-methylbutyl)-6-N-[N′-(3,4,5-trimethoxybenzyl)-N′-piperonylaminothiocarbonyl]-2,6-diaminohexanol] |  | 10700 | 
CC(C)CN([C@H](CO)CCCCNC(=O)N(Cc1ccc2c(c1)OCO2)Cc1ccc2c(c1)OCO2)S(=O)(=O)c1ccc(N)cc1 [Example 85, (2S) 2-N-(4-Aminobenzenesulfonyl)-2-N-isobutyl-6-N-(N′,N′-dipiperonylaminocarbonyl)-2,6-diaminohexanol] | 8.77 | 13100 | 
CC(C)CCN([C@H](CO)CCCCNC(=O)N(Cc1ccncc1)Cc1ccc2c(c1)OCO2)S(=O)(=O)c1ccc(N)cc1 [Example 95, (2S) 2-N-(4-Aminobenzenesulfonyl)-2-N-(3-methylbutyl)-6-N-[N′-(4-picolyl)-N′-piperonylaminocarbonyl]-2,6-diaminohexanol] |  | 28800 | 
Cc1ccc(S(=O)(=O)N(CC(C)C)[C@H](CO)CCCCNC(=O)N(Cc2ccccc2)Cc2cccc(N)c2)cc1 [Example 63, (2S) 2-N-Isobutyl-2-N-(4-methylbenzenesulfonyl)-6-N-[N′-(3-aminobenzyl)-N′-benzylaminocarbonyl]-2,6-diaminohexanol] |  |  | 7.27
Cc1ccc(S(=O)(=O)N(CC(C)C)[C@@H](CCCCNC(=O)N(Cc2ccccc2)Cc2cccc([N+](=O)[O-])c2)C(=O)O)cc1 [Example 55, Nα-Isobutyl-Nα-(4-methylbenzenesulfonyl)-Nε-[N′-benzyl-N′-(3-nitrobenzyl)aminocarbonyl]-L-lysine] |  |  | 8.96
COc1ccc(CN(Cc2ccncc2)C(=O)NCCCC[C@@H](CO)N(CC(C)C)S(=O)(=O)c2ccc(C)cc2)cc1 [Example 45, (2S) 2-N-Isobutyl-2-N-(4-methylbenzenesulfonyl)-6-N-[N′-(4-methoxybenzyl)-N′-(4-picolyl)aminocarbonyl]-2,6-diaminohexanol] |  |  | 7.27
CC(C)CCN([C@H](CO)CCCCNC(=O)N(Cc1ccc(F)cc1)Cc1ccc2c(c1)OCO2)S(=O)(=O)c1ccc(N)cc1 [Example 102, (2S) 2-N-(4-Aminobenzenesulfonyl)-2-N-(3-methylbutyl)-6-N-[N′-(4-fluorobenzyl)-N′-piperonylaminocarbonyl]-2,6-diaminohexanol] |  | 24400 | 
Cc1ccc(S(=O)(=O)N(CC(C)C)[C@H](CO)CCCCNC(=S)N(Cc2ccccc2)Cc2ccccc2)cc1 [Example 34, (2S) 2-N-Isobutyl-2-N-(4-methylbenzenesulfonyl)-6-N-(N′,N′-dibenzylaminothiocarbonyl)-2,6-diaminohexanol] |  |  | 7.11
Cc1ccc(S(=O)(=O)N(CC(C)C)[C@@H](CCCCNC(=O)N(Cc2ccncc2)Cc2ccncc2)C(=O)O)cc1 [Example 44, Nα-Isobutyl-Nα-(4-methylbenzenesulfonyl)-Nε-[N′,N′-di-(4-picolyl)aminocarbonyl]-L-lysine] |  |  | 6.73
Cc1ccc(S(=O)(=O)N(CC(C)C)[C@@H](CCCCNC(=O)N(Cc2ccccc2)Cc2ccccc2N)C(=O)O)cc1 [Example 57, Nα-Isobutyl-Nα-(4-methylbenzenesulfonyl)-Nε-[N′-(2-ninobenzyl)-N′-benzylaminocarbonyl]-L-lysine] |  |  | 8.77
Cc1ccc(S(=O)(=O)N(CC(C)C)[C@@H](CCCCNC(=O)NCc2ccccc2)C(=O)O)cc1 [Example 2, Nα-Isobutyl-Nα-(4-methylbenzenesulfonyl)-Nε-(benzylaminocarbonyl)-L-lysine] |  |  | 7.49
Cc1ccc(S(=O)(=O)N(CC(C)C)[C@@H](CCCCNC(=O)N[C@@H]2CCc3ccccc32)C(=O)O)cc1 [Example 24, (1S,1′R) Nα-Isobutyl-Nα-(4-methylbenzenesulfonyl)-Nε-(indanyl-1′-aminocarbonyl)-S-lysine] |  |  | 6.71
CC(C)CN([C@H](CO)CCCCNC(=O)N(Cc1ccccc1)Cc1ccc(F)cc1)S(=O)(=O)c1ccc(N)cc1 [Example 68, (2S) 2-N-(4-Aminobenzenesulfonyl)-2-N-isobutyl-6-N-[N′-benzyl-N′-(4-fluorobenzyl)aminocarbonyl]-2,6-diaminohexanol] |  |  | 8.48
CC(C)CN([C@@H](CCCCNC(=O)N(Cc1ccccc1)Cc1ccncc1)C(=O)O)S(=O)(=O)c1ccc(N)cc1 [Example 48, Nα-(4-Aminobenzenesulfonyl)-Nα-isobutyl-Nε-[N′-benzyl-N′-(4-picolyl)aminocarbonyl]-L-lysine] |  |  | 7.92
COc1ccc(CN(Cc2ccc3c(c2)OCO3)C(=O)NCCCC[C@@H](CO)N(CC(C)C)S(=O)(=O)c2ccc(N)cc2)cc1 [Example 83, (2S) 2-N-(4-Aminobenzenesulfonyl)-2-N-isobutyl-6-N-[N′-(4-methoxybenzyl)-N′-piperonylaminocarbonyl]-2,6-diaminohexanol] |  |  | 8.66
Cc1ccc(S(=O)(=O)N(CC(C)C)C(CCCCNC(=NC#N)NCCc2c[nH]c3ccccc23)C(=O)O)cc1 [Example 29, Nα-Isobutyl-Nα-(4-methylbenzenesulfonyl)-Nε-[2′-(3-indolyl)ethylaminocarbonyl-N-cyanoamidine]-L-lysine] |  |  | 8.09
CCC(C)CN(C(CO)CCCCNC(=O)N(Cc1ccc2c(c1)OCO2)Cc1cccs1)S(=O)(=O)c1ccc(N)cc1 [Example 99, (2S) 2-N-(4-Aminobenzenesulfonyl)-2-N-(2-methylbutyl)-6-N-[N′-(2-thiophenemethyl)-N′-piperonylaminocarbonyl]-2,6-diaminohexanol] |  |  | 7.62
Cc1ccc(S(=O)(=O)N(CC(C)C)[C@@H](CCCCNC(=O)N(Cc2ccccc2)C(C)C)C(=O)O)cc1 [Example 39, Nα-Isobutyl-Nα-(4-methylbenzenesulfonyl)-Nε-[(N′-benzyl-N′-iso-propyl)aminocarbonyl]-L-lysine] |  |  | 7.72
Cc1ccc(S(=O)(=O)N(CC(C)C)[C@H](CO)CCCCNC(=O)N(Cc2ccccc2)Cc2ccccc2)cc1 [Example 33, (2S) 2-N-Isobutyl-2-N-(4-methylbenzenesullonyl)-6-N-(N′,N′-dibenzylaminocarbonyl)-2,6-diaminohexanol] |  |  | 7.77
CC(C)CN([C@H](CO)CCCCNC(=O)N(Cc1cccc(F)c1)C1CCCCC1)S(=O)(=O)c1ccc(N)cc1 [Example 71, (2S) 2-N-(4-Aminobenzenesulfonyl)-2-N-isobutyl-6-N-[N′-cyclohexyl-N′-(3-fluorobenzyl)aminocarbonyl]-2,6-diaminohexanol] |  |  | 6.63
CC(C)CN([C@H](CO)CCCCNC(=O)N(Cc1ccc([N+](=O)[O-])cc1)Cc1ccc2c(c1)OCO2)S(=O)(=O)c1ccc(N)cc1 [Example 84, (2S) 2-N-(4-Aminobenzenesulfonyl)-2-N-isobutyl-6-N-[N′-(4-nitrobenzyl)-N′-piperonylaminocarbonyl]-2,6-diaminohexanol] |  |  | 8.70
Cc1ccc(S(=O)(=O)N(CC(C)C)[C@@H](CCCCNC(=O)N(Cc2ccccc2)Cc2ccncc2)C(=O)O)cc1 [Example 38, Nα-Isobutyl-Nα-(4-methylbenzenesulfonyl)-Nε-[N′-benzyl-N′-(4-picolyl)aminocarbonyl]-L-lysine] |  |  | 8.43
CC(C)CN([C@H](CO)CCCCNC(=O)N(Cc1ccc(F)cc1)C1CCCCC1)S(=O)(=O)c1ccc(N)cc1 [Example 66, (2S) 2-N-(4-Aminobenzenesulfonyl)-2-N-isobutyl-6-N-[N′-cyclohexyl-N′-(4-fluorobenzyl)aminocarbonyl]-2,6-diaminohexanol] |  |  | 6.76
CC(C)CN([C@H](CO)CCCCNC(=O)N(Cc1ccccc1)Cc1ccncc1)S(=O)(=O)c1ccc(N)cc1 [Example 52, (2S) 2-N-(4-Aminobenzenesulfonyl)-2-N-isobutyl-6-N-[N′-benzyl-N′-(4-picolyl)aminocarbonyl]-2,6-diaminohexanol] |  |  | 7.05
Cc1ccc(S(=O)(=O)N(CC(C)C)[C@@H](CCCCNC(=O)N(Cc2ccccc2)Cc2cccnc2)C(=O)O)cc1 [Example 42, Nα-Isobutyl-Nα-(4-methylbenzenesulfonyl)-Nε-[N′-benzyl-N′-(3-picolyl)aminocarbonyl]-L-lysine] |  |  | 8.43
